We go through seven compounds from ChEMBL document CHEMBL5244244, “Fight against novel coronavirus: A perspective of medicinal chemists” (Eur J Med Chem, 2020).

Series [1] deals with Replicase polyprotein 1ab (Severe acute respiratory syndrome coronavirus 2, UniProt P0DTD1). As to the kind of experiment: Inhibition of SARS-CoV-2 main protease.
A short description of series [2]: Selectivity index, ratio of CC50 for African green monkey Vero E6 cells to EC50 for antiviral activity against SARS-CoV-2 2019BetaCoV/Wuhan/WIV04/2019. The following applies: read-out: Selectivity Index. Format: toxicity, Vero C1008.
Series [3] is described as follows: Cytotoxicity against African green monkey Vero E6 cells assessed as reduction of cell viability measured after 48 hrs by CCK-8 assay. The series is classed as toxicity, cell-based, Vero C1008. The conditions noted are these: chlorocebus sabaeus.
The nature of series [4]: Selectivity index, ratio of CC50 for African green monkey Vero cells to EC50 for antiviral activity against SARS-CoV-2. Format: toxicity. The conditions noted are these: read-out: Selectivity Index.
Series [5] relates to SARS-CoV-2. Description: Antiviral activity against SARS-CoV-2 infected in African green monkey Vero cells assessed as inhibition of viral replication. The series is classed as functional, organism-based. The conditions noted are these: Severe acute respiratory syndrome coronavirus 2, Vero.
Series [6] in a line: Cytotoxicity against african green monkey Vero cells. Format: toxicity, cell-based. The following applies: chlorocebus sabaeus.
In series [7] the test system is SARS-CoV-2. As to the kind of experiment: Antiviral activity against SARS-CoV-2 2019BetaCoV/Wuhan/WIV04/2019 infected in African green monkey Vero E6 cells assessed as inhibition of viral replication measured after 48 hrs. The conditions noted are these: Severe acute respiratory syndrome coronavirus 2, 2019BetaCoV/Wuhan/WIV04/2019, Vero C1008, 48 h. The series is classed as functional, organism-based.

For the compound `Cc1cccc(C)c1OCC(=O)N[C@@H](Cc1ccccc1)[C@@H](O)C[C@H](Cc1ccccc1)NC(=O)[C@H](C(C)C)N1CCCNC1=O` [LOPINAVIR], half-maximal inhibition in series [1] (IC50) required 9.12 µM.

Regarding `NC(=O)c1nc(F)c[nH]c1=O`, the selectivity ratio in series [2] is more than 6.46. Further, the CC50 at 48 h in series [3] is more than 400 µM. In the case of `N=C(N)c1ccc2cc(OC(=O)c3ccc(N=C(N)N)cc3)ccc2c1` [NAFAMOSTAT], the selectivity ratio in series [4] was found to be 4.44. Besides, the concentration for a half-maximal effect (EC50) in the series on SARS-CoV-2 [5] was 22.5 µM. For the same compound, in series [6], the CC50 was more than 100 µM.

For the compound `Nc1nc2c(ncn2CCC(CO)CO)c(=O)[nH]1` [PENCICLOVIR], the selectivity ratio in series [2] is more than 4.17. Besides, in series [3], the cytotoxic concentration (CC50) at 48 h was more than 400 µM. Regarding `O=C(Nc1ccc([N+](=O)[O-])cc1Cl)c1cc(Cl)ccc1O` [NICLOSAMIDE], the CC50 at 48 h in series [3] was more than 35.5 µM. Besides, in the series with SARS-CoV-2 [7], the 50% effective concentration (EC50) worked out at 2.12 µM. With `NC(=O)c1ncn([C@@H]2O[C@H](CO)[C@@H](O)[C@H]2O)n1` [RIBAVIRIN], the half-maximal cytotoxic concentration (CC50) at 48 h in series [3] was more than 400 µM. Take `CCN(CC)CCCC(C)Nc1ccnc2cc(Cl)ccc12` (stereo not drawn) [CHLOROQUINE]: in series [3], the CC50 at 48 h is more than 100 µM. In addition, the EC50 in the series with SARS-CoV-2 [7] was 1.13 µM.

In general, IC50 refers to the concentration that inhibits the measured activity by half. One may read the CC50 as the concentration at which the toxic effect on the cells reaches its halfway point. For orientation: EC50 means the concentration giving half of the maximal effect.
